Read-outs that look alike come from different tables or passages of the source.
Legend:
MRCKα(h) = molecular target: T1, MRCKα(h) (Homo sapiens, UniProt Q5VT25); experiment: Kinase panel; format: biochemical
T1 construct: purchased Millipore KinaseProfiler

DAPK2(h) = molecular target: T2, DAPK2(h) (Homo sapiens, UniProt Q9UIK4); experiment: Kinase panel; format: biochemical
T2 construct: purchased Millipore KinaseProfiler

MLCK(h) = experiment: Kinase panel; format: biochemical, human
EphA8(h) = molecular target: T3, EphA8(h) (Homo sapiens, UniProt P29322); experiment: Kinase panel; format: biochemical
T3 construct: purchased Millipore KinaseProfiler
T3 sequence (P29322 28-1005): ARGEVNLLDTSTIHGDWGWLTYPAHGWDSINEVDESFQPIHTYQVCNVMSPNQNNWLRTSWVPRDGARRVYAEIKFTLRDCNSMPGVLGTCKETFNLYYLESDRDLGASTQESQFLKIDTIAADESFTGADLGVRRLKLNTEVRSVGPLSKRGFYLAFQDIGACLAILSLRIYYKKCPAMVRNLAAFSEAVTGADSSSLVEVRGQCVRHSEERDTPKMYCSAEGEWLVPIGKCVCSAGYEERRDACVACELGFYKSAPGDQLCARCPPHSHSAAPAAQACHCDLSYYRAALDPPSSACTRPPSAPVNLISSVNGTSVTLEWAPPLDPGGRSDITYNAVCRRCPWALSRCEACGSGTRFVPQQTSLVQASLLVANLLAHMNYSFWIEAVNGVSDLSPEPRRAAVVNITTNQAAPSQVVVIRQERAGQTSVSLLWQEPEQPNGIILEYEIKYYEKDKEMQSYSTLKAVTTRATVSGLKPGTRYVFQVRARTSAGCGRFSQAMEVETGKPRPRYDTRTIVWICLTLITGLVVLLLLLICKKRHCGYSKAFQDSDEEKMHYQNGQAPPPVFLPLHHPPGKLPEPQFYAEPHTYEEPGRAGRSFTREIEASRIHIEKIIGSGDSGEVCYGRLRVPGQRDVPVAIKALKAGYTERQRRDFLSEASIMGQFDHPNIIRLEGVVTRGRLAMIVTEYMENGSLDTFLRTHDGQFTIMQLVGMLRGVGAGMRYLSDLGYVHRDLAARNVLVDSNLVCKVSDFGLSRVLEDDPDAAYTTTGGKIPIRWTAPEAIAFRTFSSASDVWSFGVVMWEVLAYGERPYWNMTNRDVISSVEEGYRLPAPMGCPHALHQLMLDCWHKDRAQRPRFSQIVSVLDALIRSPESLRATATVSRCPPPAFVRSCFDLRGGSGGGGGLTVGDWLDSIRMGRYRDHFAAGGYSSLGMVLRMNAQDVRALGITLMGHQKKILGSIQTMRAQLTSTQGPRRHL

CaMKI(h) = molecular target: T4, CaMKI(h) (Homo sapiens, UniProt Q14012); experiment: Kinase panel; format: biochemical
T4 construct: purchased Millipore KinaseProfiler

TAO3(h) = molecular target: T5, TAO3(h) (Homo sapiens, UniProt Q9H2K8); experiment: Kinase panel; format: biochemical
T5 construct: purchased Millipore KinaseProfiler
T5 sequence (Q9H2K8 1-898): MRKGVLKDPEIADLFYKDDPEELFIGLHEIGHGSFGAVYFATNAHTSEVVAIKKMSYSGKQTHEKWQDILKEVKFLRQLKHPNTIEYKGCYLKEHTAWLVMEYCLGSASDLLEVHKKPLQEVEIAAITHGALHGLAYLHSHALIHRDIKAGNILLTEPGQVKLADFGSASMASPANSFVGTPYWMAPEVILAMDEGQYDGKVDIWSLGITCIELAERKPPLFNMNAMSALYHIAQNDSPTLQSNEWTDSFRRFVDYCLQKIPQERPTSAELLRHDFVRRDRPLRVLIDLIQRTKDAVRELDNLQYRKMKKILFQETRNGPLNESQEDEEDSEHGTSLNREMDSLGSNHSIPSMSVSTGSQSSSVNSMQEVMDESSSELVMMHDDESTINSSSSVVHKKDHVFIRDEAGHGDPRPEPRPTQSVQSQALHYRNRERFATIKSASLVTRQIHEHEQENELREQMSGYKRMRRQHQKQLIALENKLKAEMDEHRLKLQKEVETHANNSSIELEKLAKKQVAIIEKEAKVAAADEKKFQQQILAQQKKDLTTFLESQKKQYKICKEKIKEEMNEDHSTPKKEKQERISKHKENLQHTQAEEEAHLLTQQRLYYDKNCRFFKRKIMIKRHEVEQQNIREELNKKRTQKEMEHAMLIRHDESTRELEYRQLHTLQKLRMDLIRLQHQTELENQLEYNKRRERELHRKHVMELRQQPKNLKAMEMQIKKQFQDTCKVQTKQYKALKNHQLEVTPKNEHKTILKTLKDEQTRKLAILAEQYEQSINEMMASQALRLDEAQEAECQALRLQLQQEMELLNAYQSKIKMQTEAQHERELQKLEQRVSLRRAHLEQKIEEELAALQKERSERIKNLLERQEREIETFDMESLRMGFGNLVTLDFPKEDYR

[1] = Blood glucose after single oral dose; format: in vivo, mouse
Experimental: Blood glucose levels were determined from tail vein puncture in mice using a handheld glucometer. Plasma Insulin levels were using the Rat Ultrasensitive Insulin ELISA kit (Crystal Chem Inc).

TrkB(h) = molecular target: T6, TrkB(h) (Homo sapiens, UniProt Q16620); experiment: Kinase panel; format: biochemical
T6 construct: purchased Millipore KinaseProfiler

CHK1(h) = molecular target: T7, CHK1(h) (Homo sapiens, UniProt O14757); experiment: Kinase panel; format: biochemical
T7 construct: purchased Millipore KinaseProfiler
T7 sequence (O14757 1-476): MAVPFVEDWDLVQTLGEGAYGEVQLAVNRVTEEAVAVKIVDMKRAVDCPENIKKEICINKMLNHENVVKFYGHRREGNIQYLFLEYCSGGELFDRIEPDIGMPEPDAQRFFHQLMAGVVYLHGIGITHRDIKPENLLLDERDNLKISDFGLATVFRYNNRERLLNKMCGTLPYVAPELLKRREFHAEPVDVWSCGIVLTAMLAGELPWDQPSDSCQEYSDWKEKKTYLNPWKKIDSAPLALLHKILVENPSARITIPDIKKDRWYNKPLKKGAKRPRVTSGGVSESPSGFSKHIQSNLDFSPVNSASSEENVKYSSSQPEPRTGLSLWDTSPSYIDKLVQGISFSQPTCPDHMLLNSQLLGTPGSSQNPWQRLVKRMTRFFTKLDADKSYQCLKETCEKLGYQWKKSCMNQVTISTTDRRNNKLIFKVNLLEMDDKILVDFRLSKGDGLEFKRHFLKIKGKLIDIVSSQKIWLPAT

T2 sequence (Q9UIK4 whole entry): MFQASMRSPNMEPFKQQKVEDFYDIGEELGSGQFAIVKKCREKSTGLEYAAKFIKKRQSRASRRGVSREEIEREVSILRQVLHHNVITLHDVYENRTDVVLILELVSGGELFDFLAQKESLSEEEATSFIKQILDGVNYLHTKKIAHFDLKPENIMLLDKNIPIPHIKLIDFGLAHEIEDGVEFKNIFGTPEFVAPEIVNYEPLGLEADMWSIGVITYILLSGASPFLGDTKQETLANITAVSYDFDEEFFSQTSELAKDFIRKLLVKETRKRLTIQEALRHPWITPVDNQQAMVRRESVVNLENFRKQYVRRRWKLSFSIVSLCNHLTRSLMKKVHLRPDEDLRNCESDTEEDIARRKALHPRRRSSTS
T1 sequence (Q5VT25 whole entry): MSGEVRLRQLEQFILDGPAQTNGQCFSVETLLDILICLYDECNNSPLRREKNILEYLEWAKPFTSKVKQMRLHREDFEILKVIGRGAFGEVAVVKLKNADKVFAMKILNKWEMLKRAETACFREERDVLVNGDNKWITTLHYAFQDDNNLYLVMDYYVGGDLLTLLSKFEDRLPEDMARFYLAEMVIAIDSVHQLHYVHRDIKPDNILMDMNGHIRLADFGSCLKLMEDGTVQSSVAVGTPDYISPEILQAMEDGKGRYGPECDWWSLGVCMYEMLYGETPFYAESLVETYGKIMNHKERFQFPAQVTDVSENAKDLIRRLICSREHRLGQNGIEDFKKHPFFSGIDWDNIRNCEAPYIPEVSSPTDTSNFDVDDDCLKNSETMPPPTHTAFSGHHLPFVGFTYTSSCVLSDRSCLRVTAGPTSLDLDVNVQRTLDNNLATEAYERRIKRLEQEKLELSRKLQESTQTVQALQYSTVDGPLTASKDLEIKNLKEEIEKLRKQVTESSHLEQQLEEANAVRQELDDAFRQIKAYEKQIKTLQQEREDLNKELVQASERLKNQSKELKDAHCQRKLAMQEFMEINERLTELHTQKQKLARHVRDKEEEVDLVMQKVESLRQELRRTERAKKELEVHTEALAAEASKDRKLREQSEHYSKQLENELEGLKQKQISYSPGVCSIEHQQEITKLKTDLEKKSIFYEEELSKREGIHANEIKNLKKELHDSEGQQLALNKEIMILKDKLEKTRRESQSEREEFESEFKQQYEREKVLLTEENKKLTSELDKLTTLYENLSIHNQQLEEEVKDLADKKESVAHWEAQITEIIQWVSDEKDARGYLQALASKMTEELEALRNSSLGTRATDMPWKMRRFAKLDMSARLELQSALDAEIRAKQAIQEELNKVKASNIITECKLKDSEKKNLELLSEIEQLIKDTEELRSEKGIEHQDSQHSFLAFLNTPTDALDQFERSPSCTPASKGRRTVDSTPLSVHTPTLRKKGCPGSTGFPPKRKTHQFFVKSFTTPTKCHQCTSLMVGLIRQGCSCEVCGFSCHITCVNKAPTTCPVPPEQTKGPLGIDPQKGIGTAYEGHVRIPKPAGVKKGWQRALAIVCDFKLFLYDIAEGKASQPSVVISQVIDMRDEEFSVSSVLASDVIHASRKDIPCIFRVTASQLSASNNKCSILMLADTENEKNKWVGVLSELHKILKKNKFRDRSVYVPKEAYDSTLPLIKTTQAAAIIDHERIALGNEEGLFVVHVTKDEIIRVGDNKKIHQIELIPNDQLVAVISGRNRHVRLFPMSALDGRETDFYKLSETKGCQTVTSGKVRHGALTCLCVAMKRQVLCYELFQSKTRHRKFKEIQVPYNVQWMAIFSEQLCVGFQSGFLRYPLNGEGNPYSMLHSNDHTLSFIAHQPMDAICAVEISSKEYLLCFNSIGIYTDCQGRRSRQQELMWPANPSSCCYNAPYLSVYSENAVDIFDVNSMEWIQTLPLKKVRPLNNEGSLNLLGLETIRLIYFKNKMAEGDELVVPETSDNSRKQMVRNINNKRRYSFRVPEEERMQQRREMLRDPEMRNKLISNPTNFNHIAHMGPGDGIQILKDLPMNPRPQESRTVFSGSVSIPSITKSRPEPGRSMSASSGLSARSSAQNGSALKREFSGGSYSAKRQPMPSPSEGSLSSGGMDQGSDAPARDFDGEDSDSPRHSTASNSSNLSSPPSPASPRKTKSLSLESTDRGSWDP
T4 sequence (Q14012 whole entry): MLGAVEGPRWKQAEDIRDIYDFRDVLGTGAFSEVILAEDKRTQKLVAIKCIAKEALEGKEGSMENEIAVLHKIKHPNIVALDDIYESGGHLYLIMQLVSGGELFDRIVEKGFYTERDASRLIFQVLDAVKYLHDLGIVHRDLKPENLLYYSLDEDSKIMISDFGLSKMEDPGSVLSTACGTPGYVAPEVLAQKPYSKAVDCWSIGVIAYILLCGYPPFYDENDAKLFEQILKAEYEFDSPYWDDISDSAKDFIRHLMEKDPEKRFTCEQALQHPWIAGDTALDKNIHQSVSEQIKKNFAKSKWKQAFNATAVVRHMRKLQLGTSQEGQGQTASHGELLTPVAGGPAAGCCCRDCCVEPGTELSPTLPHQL
T6 sequence (Q16620 32-822): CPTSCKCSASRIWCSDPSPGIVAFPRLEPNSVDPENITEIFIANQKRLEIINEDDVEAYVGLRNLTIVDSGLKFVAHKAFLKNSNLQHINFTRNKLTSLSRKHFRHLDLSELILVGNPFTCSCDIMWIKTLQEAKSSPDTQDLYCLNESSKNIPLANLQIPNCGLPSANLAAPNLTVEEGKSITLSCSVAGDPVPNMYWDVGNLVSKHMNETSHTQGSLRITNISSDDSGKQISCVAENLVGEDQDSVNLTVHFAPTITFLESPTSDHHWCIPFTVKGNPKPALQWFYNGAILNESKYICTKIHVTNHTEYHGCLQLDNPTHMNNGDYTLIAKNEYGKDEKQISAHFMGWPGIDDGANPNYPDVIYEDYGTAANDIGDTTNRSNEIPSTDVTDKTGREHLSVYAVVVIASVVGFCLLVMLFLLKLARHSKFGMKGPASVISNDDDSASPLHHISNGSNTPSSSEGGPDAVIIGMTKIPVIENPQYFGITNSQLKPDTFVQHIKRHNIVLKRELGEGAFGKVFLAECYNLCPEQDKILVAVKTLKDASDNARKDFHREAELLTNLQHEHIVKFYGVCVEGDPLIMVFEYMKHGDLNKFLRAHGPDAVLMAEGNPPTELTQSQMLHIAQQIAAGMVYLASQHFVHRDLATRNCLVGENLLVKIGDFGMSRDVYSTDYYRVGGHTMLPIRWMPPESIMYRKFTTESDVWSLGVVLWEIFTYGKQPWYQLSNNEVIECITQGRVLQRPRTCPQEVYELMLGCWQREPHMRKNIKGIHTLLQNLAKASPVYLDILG

## Cn1ncc(Cl)c1-c1cc(C(=O)N[C@H](CN)Cc2cccc(F)c2)sc1Cl [GSK2110183]
MRCKα(h)
  inhibition at 0.5 µM: -9%
  inhibition at 10 µM: -5%
DAPK2(h)
  inhibition at 0.5 µM: -1%
  inhibition at 10 µM: 37%
MLCK(h); 0.5 µM
  % Inhibition: 4%
MLCK(h); 10 µM
  % Inhibition: 60%
EphA8(h)
  inhibition at 0.5 µM: -19%
  inhibition at 10 µM: -7%
CaMKI(h)
  inhibition at 0.5 µM: 3%
  inhibition at 10 µM: 24%
TAO3(h)
  inhibition at 0.5 µM: -2%
  inhibition at 10 µM: 24%
[1]; 100 mg/kg single oral dose
  time for blood glucose to return to normal levels: ≤ 8 h
[1]; 100 mg/kg single oral dose, 2 h post dosing
  blood glucose level: 211 mg/dL
TrkB(h)
  inhibition at 0.5 µM: 15%
  inhibition at 10 µM: 74%
CHK1(h)
  inhibition at 0.5 µM: 13%
  inhibition at 10 µM: 34%

## Cn1ncc(Cl)c1-c1cc(C(=O)N[C@H](CN)Cc2ccc(F)c(F)c2)oc1Cl [GSK2141795]
MRCKα(h); 0.5 µM, read-out: % Inhibition
  inhibition at 0.5 µM: -6%
MRCKα(h); 10 µM, read-out: % Inhibition
  inhibition at 10 µM: -2%
DAPK2(h); 0.5 µM, read-out: % Inhibition
  inhibition at 0.5 µM: -10%
DAPK2(h); 10 µM, read-out: % Inhibition
  inhibition at 10 µM: 58%
MLCK(h); 0.5 µM
  % Inhibition: 5%
MLCK(h); 10 µM
  % Inhibition: 58%
EphA8(h); 0.5 µM, read-out: % Inhibition
  inhibition at 0.5 µM: -4%
EphA8(h); 10 µM, read-out: % Inhibition
  inhibition at 10 µM: 25%
CaMKI(h); 0.5 µM, read-out: % Inhibition
  inhibition at 0.5 µM: -30%
CaMKI(h); 10 µM, read-out: % Inhibition
  inhibition at 10 µM: 16%
TAO3(h); 0.5 µM, read-out: % Inhibition
  inhibition at 0.5 µM: -16%
TAO3(h); 10 µM, read-out: % Inhibition
  inhibition at 10 µM: -4%
[1]; maximal tolerated dose of 30 mg/kg, daily
  blood glucose level: 200 to 300 mg/dL
[1]; single 30 mg/kg dose
  time for glucose to return to normal: ≤ 8 h
[1]; single 30 mg/kg dose, 2 h post dosing
  blood glucose level: 200 mg/dL
TrkB(h); 0.5 µM, read-out: % Inhibition
  inhibition at 0.5 µM: 27%
TrkB(h); 10 µM, read-out: % Inhibition
  inhibition at 10 µM: 85%
CHK1(h); 0.5 µM, read-out: % Inhibition
  inhibition at 0.5 µM: -9%
CHK1(h); 10 µM, read-out: % Inhibition
  inhibition at 10 µM: 21%

Source: paper PMC4076210, “Discovery of Novel AKT Inhibitors with Enhanced Anti-Tumor Effects in Combination with the MEK Inhibitor” (PLoS ONE, 2014)
